Test system: anterior ocular segment
Assay: Test Example 7 (2)(c): ocular local toxicity, visual observation on the anterior ocular segment, 28 days instillation
Format: in vivo, Japanese white rabbits
Parameters: Cornea (opacity x area), numerical rating / Iris, numerical rating / Conjunctiva (A) redness of palpebral conjunctiva, numerical rating / Conjunctiva (B) edema of palpebral conjunctiva, numerical rating / Conjunctiva (C) redness of bulbar conjunctiva, numerical rating / Conjunctiva (D) nictitating membrane, numerical rating / Conjunctiva (E) discharge, numerical rating / Total numerical rating: scale not given here
Protocol: (2) Ocular local toxicity test in rabbits of 1.0% and 0.5% ophthalmic solutions of amosulalol hydrochloride by consecutive instillation for 28 days:
With 15 male Japanese white rabbits divided into 3 groups each consisting of 5 rabbits, 1.0% and 0.5% ophthalmic solutions of amosulalol hydrochloride as well as physiological saline as a control were applied in one drop (0.05 ml) per time to the right eye of each rabbit alone, four times a day at a regular interval of 2.5 hours, for 28 days consecutively with the left eye being left untreated.
(c) Visual observation on the anterior ocular segment; Based on the below-described criteria for assessment of ocular injuries (Gendai no Rinsho (Present-Day Clinics) Vol. 4, No. 4, pp. 227-289, 1970), numerical rating was performed on 1.0% and 0.5% ophthalmic solutions of amosulalol hydrochloride before instillation as well as on the day (Day 1) of initiating the instillation and on the 2nd, 4th, 7th, 14th, 21st, 28th days after initiating the instillation but each time after completion of the instillation and on the morning of the last instillation (29th day). With reference to the results of numerical rating, a numerical rating of not less than 1 as determined on either of the items was understood to be judged "injurious to the eye" while numerical ratings of 0 and 0.5 were considered "not injurious to the eye".
Criteria for assessment of ocular injuries:
Tables 5 and 6 show the results of the visual observation on the anterior ocular section, being specified above under Item (c), as obtained with 1.0% and 0.5% ophthalmic solutions of amosulalol hydrochloride, respectively, wherein each value given represents a mean for 5 cases.
In Tables 5 and 6, the numerical rating of cornea means the value obtained by multiplying a value in "(A) Degree of Opacity" by that of "(B) Area of opacity" in the above-described "Criteria for assessment of ocular injuries".

[1] = 0.5% solution, before instillation, mean of 5
[2] = 0.5% solution, day 1, mean of 5
[3] = 0.5% solution, day 2, mean of 5
[4] = 0.5% solution, day 4, mean of 5
[5] = 0.5% solution, day 7, mean of 5
[6] = 0.5% solution, day 14, mean of 5
[7] = 0.5% solution, day 21, mean of 5
[8] = 0.5% solution, day 28, mean of 5
[9] = 0.5% solution, day 29, mean of 5
[10] = 1.0% solution, before instillation, mean of 5
[11] = 1.0% solution, day 1, mean of 5
[12] = 1.0% solution, day 2, mean of 5
[13] = 1.0% solution, day 4, mean of 5
[14] = 1.0% solution, day 7, mean of 5
[15] = 1.0% solution, day 14, mean of 5
[16] = 1.0% solution, day 21, mean of 5
[17] = 1.0% solution, day 28, mean of 5
[18] = 1.0% solution, day 29, mean of 5

Q: Which results are given for `COc1ccccc1OCCNCC(O)c1ccc(C)c(S(N)(=O)=O)c1.Cl` (centres unmarked) [amosulalol hydrochloride, 5-[1-hydroxy-2-[2-(2-methoxyphenoxy)ethylamino]ethyl]-2-methylbenzenesulfonamide hydrochloride]?
A: Conjunctiva (A) redness of palpebral conjunctiva, numerical rating [1]: 0; Conjunctiva (B) edema of palpebral conjunctiva, numerical rating [1]: 0; Conjunctiva (C) redness of bulbar conjunctiva, numerical rating [1]: 0; Conjunctiva (D) nictitating membrane, numerical rating [1]: 0; Conjunctiva (E) discharge, numerical rating [1]: 0; Cornea (opacity x area), numerical rating [1]: 0; Iris, numerical rating [1]: 0; Total numerical rating [1]: 0; Conjunctiva (A) redness of palpebral conjunctiva, numerical rating [2]: 0; Conjunctiva (B) edema of palpebral conjunctiva, numerical rating [2]: 0; Conjunctiva (C) redness of bulbar conjunctiva, numerical rating [2]: 0.4; Conjunctiva (D) nictitating membrane, numerical rating [2]: 0; Conjunctiva (E) discharge, numerical rating [2]: 0; Cornea (opacity x area), numerical rating [2]: 0; Iris, numerical rating [2]: 0; Total numerical rating [2]: 0.4; Conjunctiva (A) redness of palpebral conjunctiva, numerical rating [3]: 0; Conjunctiva (B) edema of palpebral conjunctiva, numerical rating [3]: 0; Conjunctiva (C) redness of bulbar conjunctiva, numerical rating [3]: 0.4; Conjunctiva (D) nictitating membrane, numerical rating [3]: 0; Conjunctiva (E) discharge, numerical rating [3]: 0; Cornea (opacity x area), numerical rating [3]: 0; Iris, numerical rating [3]: 0; Total numerical rating [3]: 0.4; Conjunctiva (A) redness of palpebral conjunctiva, numerical rating [4]: 0; Conjunctiva (B) edema of palpebral conjunctiva, numerical rating [4]: 0; Conjunctiva (C) redness of bulbar conjunctiva, numerical rating [4]: 0.2; Conjunctiva (D) nictitating membrane, numerical rating [4]: 0; Conjunctiva (E) discharge, numerical rating [4]: 0; Cornea (opacity x area), numerical rating [4]: 0; Iris, numerical rating [4]: 0; Total numerical rating [4]: 0.2; Conjunctiva (A) redness of palpebral conjunctiva, numerical rating [5]: 0; Conjunctiva (B) edema of palpebral conjunctiva, numerical rating [5]: 0; Conjunctiva (C) redness of bulbar conjunctiva, numerical rating [5]: 0.2; Conjunctiva (D) nictitating membrane, numerical rating [5]: 0; Conjunctiva (E) discharge, numerical rating [5]: 0; Cornea (opacity x area), numerical rating [5]: 0; Iris, numerical rating [5]: 0; Total numerical rating [5]: 0.2; Conjunctiva (A) redness of palpebral conjunctiva, numerical rating [6]: 0; Conjunctiva (B) edema of palpebral conjunctiva, numerical rating [6]: 0; Conjunctiva (C) redness of bulbar conjunctiva, numerical rating [6]: 0.2; Conjunctiva (D) nictitating membrane, numerical rating [6]: 0; Conjunctiva (E) discharge, numerical rating [6]: 0; Cornea (opacity x area), numerical rating [6]: 0; Iris, numerical rating [6]: 0; Total numerical rating [6]: 0.2; Conjunctiva (A) redness of palpebral conjunctiva, numerical rating [7]: 0; Conjunctiva (B) edema of palpebral conjunctiva, numerical rating [7]: 0; Conjunctiva (C) redness of bulbar conjunctiva, numerical rating [7]: 0.1; Conjunctiva (D) nictitating membrane, numerical rating [7]: 0; Conjunctiva (E) discharge, numerical rating [7]: 0; Cornea (opacity x area), numerical rating [7]: 0; Iris, numerical rating [7]: 0; Total numerical rating [7]: 0.1; Conjunctiva (A) redness of palpebral conjunctiva, numerical rating [8]: 0; Conjunctiva (B) edema of palpebral conjunctiva, numerical rating [8]: 0; Conjunctiva (C) redness of bulbar conjunctiva, numerical rating [8]: 0.1; Conjunctiva (D) nictitating membrane, numerical rating [8]: 0; Conjunctiva (E) discharge, numerical rating [8]: 0; Cornea (opacity x area), numerical rating [8]: 0; Iris, numerical rating [8]: 0; Total numerical rating [8]: 0.1; Conjunctiva (A) redness of palpebral conjunctiva, numerical rating [9]: 0; Conjunctiva (B) edema of palpebral conjunctiva, numerical rating [9]: 0; Conjunctiva (C) redness of bulbar conjunctiva, numerical rating [9]: 0; Conjunctiva (D) nictitating membrane, numerical rating [9]: 0; Conjunctiva (E) discharge, numerical rating [9]: 0; Cornea (opacity x area), numerical rating [9]: 0; Iris, numerical rating [9]: 0; Total numerical rating [9]: 0; visual observation of the anterior ocular segment (1.0% and 0.5% ophthalmic solutions, 4 times a day, 28 days): no abnormality; Conjunctiva (A) redness of palpebral conjunctiva, numerical rating [10]: 0; Conjunctiva (B) edema of palpebral conjunctiva, numerical rating [10]: 0; Conjunctiva (C) redness of bulbar conjunctiva, numerical rating [10]: 0; Conjunctiva (D) nictitating membrane, numerical rating [10]: 0; Conjunctiva (E) discharge, numerical rating [10]: 0; Cornea (opacity x area), numerical rating [10]: 0; Iris, numerical rating [10]: 0; Total numerical rating [10]: 0; Conjunctiva (A) redness of palpebral conjunctiva, numerical rating [11]: 0.2; Conjunctiva (B) edema of palpebral conjunctiva, numerical rating [11]: 0; Conjunctiva (C) redness of bulbar conjunctiva, numerical rating [11]: 0.5; Conjunctiva (D) nictitating membrane, numerical rating [11]: 0; Conjunctiva (E) discharge, numerical rating [11]: 0; Cornea (opacity x area), numerical rating [11]: 0; Iris, numerical rating [11]: 0; Total numerical rating [11]: 0.7; Conjunctiva (A) redness of palpebral conjunctiva, numerical rating [12]: 0.2; Conjunctiva (B) edema of palpebral conjunctiva, numerical rating [12]: 0; Conjunctiva (C) redness of bulbar conjunctiva, numerical rating [12]: 0.5; Conjunctiva (D) nictitating membrane, numerical rating [12]: 0; Conjunctiva (E) discharge, numerical rating [12]: 0; Cornea (opacity x area), numerical rating [12]: 0; Iris, numerical rating [12]: 0; Total numerical rating [12]: 0.7; Conjunctiva (A) redness of palpebral conjunctiva, numerical rating [13]: 0.1; Conjunctiva (B) edema of palpebral conjunctiva, numerical rating [13]: 0; Conjunctiva (C) redness of bulbar conjunctiva, numerical rating [13]: 0.5; Conjunctiva (D) nictitating membrane, numerical rating [13]: 0; Conjunctiva (E) discharge, numerical rating [13]: 0; Cornea (opacity x area), numerical rating [13]: 0; Iris, numerical rating [13]: 0; Total numerical rating [13]: 0.6; Conjunctiva (A) redness of palpebral conjunctiva, numerical rating [14]: 0.1; Conjunctiva (B) edema of palpebral conjunctiva, numerical rating [14]: 0; Conjunctiva (C) redness of bulbar conjunctiva, numerical rating [14]: 0.3; Conjunctiva (D) nictitating membrane, numerical rating [14]: 0; Conjunctiva (E) discharge, numerical rating [14]: 0; Cornea (opacity x area), numerical rating [14]: 0; Iris, numerical rating [14]: 0; Total numerical rating [14]: 0.4; Conjunctiva (A) redness of palpebral conjunctiva, numerical rating [15]: 0.1; Conjunctiva (B) edema of palpebral conjunctiva, numerical rating [15]: 0; Conjunctiva (C) redness of bulbar conjunctiva, numerical rating [15]: 0.3; Conjunctiva (D) nictitating membrane, numerical rating [15]: 0; Conjunctiva (E) discharge, numerical rating [15]: 0; Cornea (opacity x area), numerical rating [15]: 0; Iris, numerical rating [15]: 0; Total numerical rating [15]: 0.4; Conjunctiva (A) redness of palpebral conjunctiva, numerical rating [16]: 0.1; Conjunctiva (B) edema of palpebral conjunctiva, numerical rating [16]: 0; Conjunctiva (C) redness of bulbar conjunctiva, numerical rating [16]: 0.3; Conjunctiva (D) nictitating membrane, numerical rating [16]: 0; Conjunctiva (E) discharge, numerical rating [16]: 0; Cornea (opacity x area), numerical rating [16]: 0; Iris, numerical rating [16]: 0; Total numerical rating [16]: 0.4; Conjunctiva (A) redness of palpebral conjunctiva, numerical rating [17]: 0.1; Conjunctiva (B) edema of palpebral conjunctiva, numerical rating [17]: 0; Conjunctiva (C) redness of bulbar conjunctiva, numerical rating [17]: 0.3; Conjunctiva (D) nictitating membrane, numerical rating [17]: 0; Conjunctiva (E) discharge, numerical rating [17]: 0; Cornea (opacity x area), numerical rating [17]: 0; Iris, numerical rating [17]: 0; Total numerical rating [17]: 0.4; Conjunctiva (A) redness of palpebral conjunctiva, numerical rating [18]: 0; Conjunctiva (B) edema of palpebral conjunctiva, numerical rating [18]: 0; Conjunctiva (C) redness of bulbar conjunctiva, numerical rating [18]: 0; Conjunctiva (D) nictitating membrane, numerical rating [18]: 0; Conjunctiva (E) discharge, numerical rating [18]: 0; Cornea (opacity x area), numerical rating [18]: 0; Iris, numerical rating [18]: 0; Total numerical rating [18]: 0; side effects such as ocular irritation (ophthalmic solution): free from side effects such as ocular irritation

Source: patent US5663205A, “Pharmaceutical composition for use in glaucoma treatment” (Senju Pharmaceutical Co. Ltd., priority 1992, dated 1997)
